Results on 7 compounds are retold here after US11247965B2 (VenatoRx Pharmaceuticals, Inc., priority 2017, dated 2022).

As usually defined, the EC50 is the midpoint of the concentration-response curve. As a reminder, the CC50 is the concentration giving 50% cytotoxicity.

One data set concerns HBV. Particulars: Phase 1b clinical trial, 600 mg bid dosing for 29 days; cited from earlier work.
Data set [1] concerns HBV replication in HepAD38 cells. The experiment in a line: Anti-HBV activity in HepAD38 cells, extracellular HBV DNA by QPCR. The format is cell-based, HBV (genotype D, serotype ayw). The gist of the method: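 HepAD38 cells (HepG2 with tet-repressible HBV genotype D genome) seeded overnight, tetracycline removed, then treated 7 days with compounds (half-log dilutions, 30 μM–10 nM; 1:200 from DMSO). Supernatant HBV DNA quantified by QPCR against standard curve; % inhibition vs vehicle, EC50 by 4-parameter fit.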

The subject of a further data set is HepG2 cells. The experiment in a line: In vitro cytotoxicity, MTT cell viability assay in HepG2 cells. Type of data set: cell-based. Particulars: human, 7 days. The gist of the method:
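Parental HepG2 cells in EMEM + 10% FBS were exposed to compounds (8 half-log dilutions, 30 μM to 1.0 nM) for 7 days at 37 °C, 5% CO2. MTT was then added for 3-4 h, formazan dissolved in DMSO and absorbance read at 492 nm; CC50 came from 4-parameter fits against vehicle controls.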
(In general: Tetrazolium assays rely on reduction of a dye to a coloured formazan, in cell work by metabolically active cells.)

Where [2] appears, read: read-out: Anti-HBV EC50, HepAD38 cells, extracellular HBV DNA by QPCR, 7 days of incubation.
Where [3] appears, read: Hepatitis B virus, HePAD38, 168 h, read-out: Anti-HBV EC50, HepAD38 cells, extracellular HBV DNA by QPCR, 7 days of incubation.

Like-named read-outs stand apart in the source and are kept apart here. Some results are limits rather than exact numbers.

Regarding `O=C(Nc1cc(F)c(F)c(F)c1)c1ccc(F)c(S(=O)(=O)N2CCC(O)CC2)c1` [NVR 3-778], the “reduction in HBV DNA” value in the data set on HBV is reported as −1.7 log 10.
Turning to `N#Cc1cc(NC(=O)c2ccc(F)c(C(F)(F)C(=O)N3CCC(O)C(F)(F)C3)c2)ccc1F` (stereo not shown) [Example 191, N-(3-cyano-4-fluorophenyl)-3-(2-(3,3-difluoro-4-hydroxypiperidin-1-yl)-1,1-difluoro-2-oxoethyl)-4-fluorobenzamide], in data set [1] (setting [2]), the EC50 is less than 5 µM. In addition, the CC50 in the data set on HepG2 cells fell in the range of 5 to 30 µM.
The corresponding values for `N#Cc1cc(NC(=O)c2ccc(F)c(C(F)(F)C(=O)N3[C@@H]4CC[C@H]3C[C@@H](O)C4)c2)ccc1F` [Example 192, N-(3-cyano-4-fluorophenyl)-3-(1,1-difluoro-2-((1R,3r,5S)-3-hydroxy-8-azabicyclo[3.2.1]octan-8-yl)-2-oxoethyl)-4-fluorobenzamide] are less than 5 µM and 5 to 30 µM.
In the case of `Cc1cc(NC(=O)c2ccc(F)c(C(F)(F)C(=O)N3C4CCC3CC(O)(CO)C4)c2)ccc1F` (single isomer, unassigned; isomer 1) [Example 274], in data set [1] (setting [3]), the EC50 is less than 5 µM. In the data set with HepG2 cells, this compound returned a CC50 of less than 5 µM.
Turning to `Cc1cc(NC(=O)c2ccc(F)c(C(F)(F)C(=O)N3C4CCC3CC(O)(CO)C4)c2)ccc1F` (single isomer, unassigned; isomer 2) [Example 275], the EC50 in data set [1] (setting [2]) is less than 5 µM. Further, in the data set on HepG2 cells, the CC50 is greater than 30 µM.
For `N#Cc1cc(NC(=O)c2ccc(F)c(C(F)(F)C(=O)N3[C@@H]4CC[C@H]3C[C@@H](O)C4)c2)ccc1F` [Example 178, N-(3-cyano-4-fluorophenyl)-3-(1,1-difluoro-2-((1R,3r,5S)-3-hydroxy-8-azabicyclo[3.2.1]octan-8-yl)-2-oxoethyl)-4-fluorobenzamide], the EC50 in data set [1] (setting [3]) is less than 5 µM. This compound also registered a CC50 in the data set on HepG2 cells greater than 30 µM.
As for `O=C(Nc1ccc(F)c(F)c1)c1ccc(F)c(C(F)(F)C(=O)NC2CCC(O)CC2)c1` (stereo not shown) [Example 27, 3-(1,1-difluoro-2-(((1s,4s)-4-hydroxycyclohexyl)amino)-2-oxoethyl)-N-(3,4-difluorophenyl)-4-fluorobenzamide], in data set [1] (setting [2]), the EC50 is less than 5 µM. Moreover, the CC50 in the data set with HepG2 cells was in the range of 5 to 30 µM.
